The results in this text go back to US8895733B2 (Novartis AG, priority 2010, dated 2014).

T1 sequence (Q15858 whole entry): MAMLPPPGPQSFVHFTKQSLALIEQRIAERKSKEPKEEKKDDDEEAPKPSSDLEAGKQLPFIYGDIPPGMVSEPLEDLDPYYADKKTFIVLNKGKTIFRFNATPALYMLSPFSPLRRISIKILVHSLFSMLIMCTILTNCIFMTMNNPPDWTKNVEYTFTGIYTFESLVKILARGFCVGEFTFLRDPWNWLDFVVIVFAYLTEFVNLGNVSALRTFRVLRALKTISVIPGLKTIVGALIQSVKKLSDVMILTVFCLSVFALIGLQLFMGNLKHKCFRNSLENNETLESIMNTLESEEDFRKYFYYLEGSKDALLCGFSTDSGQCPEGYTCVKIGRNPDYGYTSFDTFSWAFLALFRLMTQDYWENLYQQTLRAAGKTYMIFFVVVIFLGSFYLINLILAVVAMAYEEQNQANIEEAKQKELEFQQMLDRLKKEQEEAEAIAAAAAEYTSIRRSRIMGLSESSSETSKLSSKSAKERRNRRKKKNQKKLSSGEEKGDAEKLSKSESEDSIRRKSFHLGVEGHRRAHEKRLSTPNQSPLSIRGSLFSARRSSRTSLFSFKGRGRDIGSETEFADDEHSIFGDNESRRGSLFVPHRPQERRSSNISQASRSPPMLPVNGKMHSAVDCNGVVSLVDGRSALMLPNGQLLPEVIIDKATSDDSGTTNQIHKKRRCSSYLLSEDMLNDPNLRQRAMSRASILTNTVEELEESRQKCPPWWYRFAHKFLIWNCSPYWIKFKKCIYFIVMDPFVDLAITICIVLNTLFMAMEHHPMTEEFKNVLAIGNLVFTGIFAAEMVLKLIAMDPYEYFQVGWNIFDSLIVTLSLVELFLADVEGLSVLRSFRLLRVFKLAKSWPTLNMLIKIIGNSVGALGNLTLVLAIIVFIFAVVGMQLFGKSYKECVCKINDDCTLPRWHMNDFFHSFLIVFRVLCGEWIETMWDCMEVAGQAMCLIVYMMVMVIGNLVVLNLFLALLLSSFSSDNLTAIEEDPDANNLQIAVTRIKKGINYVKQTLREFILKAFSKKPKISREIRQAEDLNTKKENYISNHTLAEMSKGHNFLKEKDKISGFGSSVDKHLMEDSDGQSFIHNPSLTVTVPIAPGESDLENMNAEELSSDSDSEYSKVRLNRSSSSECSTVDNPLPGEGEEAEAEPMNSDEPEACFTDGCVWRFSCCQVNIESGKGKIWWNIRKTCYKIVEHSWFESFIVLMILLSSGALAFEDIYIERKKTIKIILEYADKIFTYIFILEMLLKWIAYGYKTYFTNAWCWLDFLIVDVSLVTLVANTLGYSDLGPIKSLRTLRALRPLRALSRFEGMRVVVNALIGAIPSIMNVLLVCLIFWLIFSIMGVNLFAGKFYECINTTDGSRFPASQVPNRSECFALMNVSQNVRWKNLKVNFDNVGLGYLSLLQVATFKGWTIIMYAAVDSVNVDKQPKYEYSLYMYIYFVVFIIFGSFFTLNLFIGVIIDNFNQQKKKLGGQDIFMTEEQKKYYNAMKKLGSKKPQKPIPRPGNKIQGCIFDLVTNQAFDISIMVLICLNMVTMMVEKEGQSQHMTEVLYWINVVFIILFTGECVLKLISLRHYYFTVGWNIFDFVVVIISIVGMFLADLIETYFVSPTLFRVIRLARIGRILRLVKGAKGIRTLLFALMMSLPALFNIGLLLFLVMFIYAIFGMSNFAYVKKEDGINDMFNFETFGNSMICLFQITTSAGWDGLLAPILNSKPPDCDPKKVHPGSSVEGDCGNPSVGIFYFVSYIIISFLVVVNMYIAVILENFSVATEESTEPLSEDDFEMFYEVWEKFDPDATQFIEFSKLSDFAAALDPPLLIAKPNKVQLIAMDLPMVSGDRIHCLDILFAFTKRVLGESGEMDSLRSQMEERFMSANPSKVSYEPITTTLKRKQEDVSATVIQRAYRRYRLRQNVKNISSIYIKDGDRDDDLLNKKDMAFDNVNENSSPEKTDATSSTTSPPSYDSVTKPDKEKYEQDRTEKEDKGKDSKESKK

The first experiment has as its target T1, Nav 1.7 (Homo sapiens, UniProt Q15858).
T1 construct: expressed in transfected cells
Kind of experiment: Whole-cell voltage clamp electrophysiology, automated patch clamp (marker c in Table of Examples). Particulars: marker c = Automated patch clamp data; read-out: Nav 1.7 activity. Type of experiment: cell-based. A digest of the protocol:
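Human NaV1.7 currents were recorded by whole-cell automated patch clamp, on IonWorks Quattro or another automated platform, typically in perforated-patch configuration. The stimulus protocol was designed to probe block mainly of the inactivated state, with a typical sweep stepping from about −65 mV holding to −10 mV, then −100 mV.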
For the compound `CN(c1ccccc1)c1nc(N)nc(-c2noc(C3CN(C(=O)OC(C)(C)C)C3)n2)n1` [Example 382, tert-butyl 3-(3-{4-amino-6-[methyl(phenyl]amino]-1,3,5-triazin-2-yl}-1,2,4-oxadiazol-5-yl)azetidine-1-carboxylate], the IC50 amounted to 4.81 µM.

For `C=Cc1ccc(-c2nc(-c3nc(N)nc(N(C)c4ccccc4)n3)no2)cc1` [Example 305, 6-[5-(4-ethenylphenyl)-1,2,4-oxadiazol-3-yl]-2-N-methyl-2-N-phenyl-1,3,5-triazine-2,4-diamine], the IC50 was 0.804 µM.

Turning to `Nc1nc(Nc2ccccc2)nc(-c2noc(C(=O)N3CCC(COCC4CC4)CC3)n2)n1` [Example 463, 6-[5-({4-[(cyclopropylmethoxy)methyl]piperidin-1-yl}carbonyl)-1,2,4-oxadiazol-3-yl]-2-N-phenyl-1,3,5-triazine-2,4-diamine], the IC50 stood at 1.82 µM.

Turning to `Cc1ncccc1-c1nc(-c2nc(N)nc(N(C)c3ccccc3)n2)no1` [Example 268, 2-N-methyl-6-[5-(2-methylpyridin-3-yl)-1,2,4-oxadiazol-3-yl]-2-N-phenyl-1,3,5-triazine-2,4-diamine], the IC50 turned out to be 1.36 µM.

Regarding `CN(c1ccccc1)c1nc(N)nc(-c2noc(-c3ncccc3C(=O)NCC(F)(F)F)n2)n1` [Example 381, 2-(3-{4-amino-6-[methyl(phenyl)amino]-1,3,5-triazin-2-yl}-1,2,4-oxadiazol-5-yl)-N-(2,2,2-trifluoroethyl)pyridine-3-carboxamide], the IC50 is 4.93 µM.

Turning to `CN(c1ccccc1)c1nc(N)nc(-c2noc(-c3ccc(OCC(F)F)nc3)n2)n1` [Example 372, 6-{5-[6-(2,2-difluoroethoxy)pyridin-3-yl]-1,2,4-oxadiazol-3-yl}-2-N-methyl-2-N-phenyl-1,3,5-triazine-2,4-diamine], the IC50 was 0.155 µM.

For `CC(C)S(=O)(=O)N1CCN(c2nc(-c3nc(N)nc(N(C)c4ccccc4)n3)no2)CC1` [Example 504, 2-N-methyl-2-N-phenyl-6-{5-[4-(propane-2-sulfonyl)piperazin-1-yl]-1,2,4-oxadiazol-3-yl}-1,3,5-triazine-2,4-diamine], the IC50 is over 5.37 µM.

As for `COCCN(c1ccccc1)c1nc(N)nc(-c2noc(-c3ccc(C(=O)OC)nc3)n2)n1` [Example 311, methyl 5-(3-{4-amino-6-[(2-methoxyethyl)(phenyl)amino]-1,3,5-triazin-2-yl}-1,2,4-oxadiazol-5-yl)pyridine-2-carboxylate], the IC50 was 0.451 µM.

Take `COC1(c2ccccc2)CCN(c2nc(-c3nc(N)nc(N(C)c4ccccc4)n3)no2)CC1` [Example 360, 6-[5-(4-methoxy-4-phenylpiperidin-1-yl)-1,2,4-oxadiazol-3-yl]-2-N-methyl-2-N-phenyl-1,3,5-triazine-2,4-diamine]: the IC50 was 2.14 µM.

For the compound `CN(c1ccccc1)c1nc(N)nc(-c2noc(-c3cccnc3C(=O)OCC3CC3)n2)n1` [Example 378, cyclopropylmethyl 3-(3-{4-amino-6-[methyl(phenyl)amino]-1,3,5-triazin-2-yl}-1,2,4-oxadiazol-5-yl)pyridine-2-carboxylate], the IC50 was found to be 0.399 µM.

For the compound `CCOC1CCN(C(=O)c2nc(-c3nc(N)nc(N(C)c4ccccc4)n3)no2)CC1` [Example 458, 6-{5-[(4-ethoxypiperidin-1-yl)carbonyl]-1,2,4-oxadiazol-3-yl}-2-N-methyl-2-N-phenyl-1,3,5-triazine-2,4-diamine], the IC50 was determined as 4.72 µM.

Take `CN(c1ccccc1)c1nc(N)nc(-c2noc(-c3cccnc3C(=O)NC3CC3)n2)n1` [Example 373, 3-(3-{4-amino-6-[methyl(phenyl)amino]-1,3,5-triazin-2-yl}-1,2,4-oxadiazol-5-yl)-N-cyclopropylpyridine-2-carboxamide]: the IC50 was determined as 4.88 µM.

Take `CN(c1cccc(Cl)c1)c1nc(N)nc(-c2noc(-c3ccc(OCC(F)(F)F)nc3)n2)n1` [Example 409, 2-N-(3-chlorophenyl)-2-N-methyl-6-{5-[6-(2,2,2-trifluoroethoxy)pyridin-3-yl]-1,2,4-oxadiazol-3-yl}-1,3,5-triazine-2,4-diamine]: the IC50 came to 0.261 µM.

As for `CC(C)[S+]([O-])C1CCN(c2nc(-c3nc(N)nc(N(C)c4ccccc4)n3)no2)CC1` (centres unmarked) [Example 368, 2-N-methyl-2-N-phenyl-6-{5-[4-(propane-2-sulfinyl)piperidin-1-yl]-1,2,4-oxadiazol-3-yl}-1,3,5-triazine-2,4-diamine], the IC50 was determined as 6.7 µM.

Turning to `CC(C)C(=O)NC1CCC(c2nc(-c3nc(N)nc(N(C)c4ccccc4)n3)no2)CC1` (centres unmarked) [Example 425, N-[4-(3-{4-Amino-6-[methyl(phenyl)amino]-1,3,5-triazin-2-yl}-1,2,4-oxadiazol-5-yl)cyclohexyl]-2-methylpropanamide], the IC50 stood at 2.45 µM.

Regarding `CN(c1ccccc1)c1nc(N)nc(-c2noc(N3CCN(C(=O)C(F)(F)F)CC3)n2)n1` [Example 347, 1-[4-(3-{4-amino-6-[methyl(phenyl)amino]-1,3,5-triazin-2-yl}-1,2,4-oxadiazol-5-yl)piperazin-1-yl]-2,2,2-trifluoroethan-1-one], the IC50 is 5.81 µM.

In the case of `Nc1nc(Nc2ccccc2)nc(-c2noc(-c3ccc(COCC4CC4)nc3)n2)n1` [Example 211, 6-(5-{6-[(cyclopropylmethoxy)methyl]pyridin-3-yl}-1,2,4-oxadiazol-3-yl)-2-N-phenyl-1,3,5-triazine-2,4-diamine], the IC50 worked out at 0.044 µM.

Consider `CN(c1ccccc1)c1nc(N)nc(-c2noc(C3CN(S(=O)(=O)CC(F)(F)F)C3)n2)n1` [Example 310, 2-N-methyl-2-N-phenyl-6-(5-{1-[(2,2,2-trifluoroethane)sulfonyl]azetidin-3-yl}-1,2,4-oxadiazol-3-yl)-1,3,5-triazine-2,4-diamine], for which the IC50 is 0.968 µM.

Turning to `COC[C@H]1CCCN1c1nc(-c2nc(N)nc(N(C)c3ccccc3)n2)no1` [Example 444, 6-{5-[(2R)-2-(methoxymethyl)pyrrolidin-1-yl]-1,2,4-oxadiazol-3-yl}-2-N-methyl-2-N-phenyl-1,3,5-triazine-2,4-diamine], the IC50 came out at 8 µM.

With `CN(c1ccccc1)c1nc(N)nc(-c2noc(-c3ccc4c(c3)COC4)n2)n1` [Example 306, 6-(5-(1,3-dihydro-2-benzofuran-5-yl)-1,2,4-oxadiazol-3-yl]-2-N-methyl-2-N-phenyl-1,3,5-triazine-2,4-diamine], the IC50 worked out at 2.67 µM.

As for `COC1CN(c2nc(-c3nc(N)nc(N(C)c4ccccc4)n3)no2)C1` [Example 493, 6-[5-(3-methoxyazetidin-1-yl)-1,2,4-oxadiazol-3-yl]-2-N-methyl-2-N-phenyl-1,3,5-triazine-2,4-diamine], the IC50 was over 9.35 µM.

Turning to `Nc1nc(Nc2cc(F)ccc2F)nc(-c2noc(-c3ccc(OCC(F)(F)F)nc3)n2)n1` [Example 343, 2-N-(2,5-difluorophenyl)-6-{5-[6-(2,2,2-trifluoroethoxy)pyridin-3-yl]-1,2,4-oxadiazol-3-yl}-1,3,5-triazine-2,4-diamine], the IC50 is 0.195 µM.

The experiment is the same for the next values; noted with them: marker c: Automated patch clamp data; read-out: Nav 1.7 activity.
On to `Nc1nc(-c2noc(-c3ccco3)n2)nc(N(CCO)c2ccccc2)n1` [Example 70, 2-{[4-Amino-6-(5-furan-2-yl-[1,2,4]oxadiazol-3-yl)-[1,3,5]triazin-2-yl]-phenyl-amino}-ethanol], for which the IC50 is 1.02 µM.

With `COc1ccc(F)cc1-c1nc(-c2nc(N)nc(N(C)c3cccc(C)c3)n2)no1` [Example 186], the IC50 worked out at 0.087 µM.

For the compound `COc1cccc(-c2nc(-c3nc(N)nc(N(C)c4cccc(F)c4)n3)no2)c1` [Example 85, N-(3-Fluoro-phenyl)-6-[5-(3-methoxy-phenyl)-[1,2,4]oxadiazol-3-yl]-N-methyl-[1,3,5]triazine-2,4-diamine], the IC50 is 1.27 µM.

For `CCCS(=O)(=O)N1CCC(c2nc(-c3nc(N)nc(N(C)c4ccccc4)n3)no2)CC1` [Example 168, 2-N-methyl-2-N-phenyl-6-{5-[1 - (propane-1-sulfonyl)piperidin-4-yl]-1,2,4-oxadiazol-3-yl}-1,3,5-triazine-2,4-diamine], the IC50 came to 1.47 µM.

Turning to `CN(c1ccccc1)c1nc(N)nc(-c2noc(N3CCC(CS(=O)(=O)CC(F)(F)F)CC3)n2)n1` [Example 178, 2-N-Methyl-2-N-phenyl-6-[5-(4-{[(2,2,2-trifluoroethane)sulfonyl]methyl}piperidin-1-yl)-1,2,4-oxadiazol-3-yl]-1,3,5-triazine-2,4-diamine], the IC50 is 2.65 µM.

As to `CCOC(=O)c1nc(-c2nc(N)nc(N(C)c3ccccc3)n2)no1` [Example 73, 3-[4-Amino-6-(methyl-phenyl-amino)-[1,3,5]triazin-2-yl]-[1,2,4]oxadiazole-5-carboxylic acid ethyl ester], the IC50 stood at 1.49 µM.

Regarding `Cc1cccc(N(C)c2nc(N)nc(-c3noc(-c4ccccc4Cl)n3)n2)c1` [Example 195, 6-[5-(2-chlorophenyl)-1,2,4-oxadiazol-3-yl]-2-N-methyl-2-N-(3-methylphenyl)-1,3,5-triazine-2,4-diamine], the IC50 is 0.431 µM.

Take `CN(c1ccccc1)c1nc(N)nc(-c2noc(N3CCC(CSc4ccccc4)CC3)n2)n1` [Example 176, 2-N-methyl-2-N-phenyl-6-(5-{4-[(phenylsulfanyl)methyl]piperidin-1-yl}-1,2,4-oxadiazol-3-yl)-1,3,5-triazine-2,4-diamine]: the IC50 was found to be 0.223 µM.

On to `CN(c1ccccc1)c1nc(N)nc(-c2noc(-c3ccc(C(F)(F)F)nc3Cl)n2)n1` [Example 142, 6-{5-[2-chloro-6-(trifluoromethyl)pyridin-3-yl]-1,2,4-oxadiazol-3-yl}-2-N-methyl-2-N-phenyl-1,3,5-triazine-2,4-diamine], for which the IC50 was found to be 5.82 µM.

Turning to `CN(c1ccccc1)c1nc(N)nc(-c2noc(-c3ncco3)n2)n1` [Example 128, N-Methyl-6-(5-oxazol-2-yl-[1,2,4]oxadiazol-3-yl)-N-phenyl-[1,3,5]triazine-2,4-diamine], the IC50 amounted to 1.51 µM.
